Assay results published in ChEMBL document CHEMBL4152220, “Discovery of new benzensulfonamide derivatives as tripedal STAT3 inhibitors” (Eur J Med Chem, 2018).
Calls of active or inactive are those of the source. The calls are words filed in the database; no cut-off is given here.

Tests used:
[1] = molecular target: T1, Signal transducer and activator of transcription 1-alpha/beta (Homo sapiens) (UniProt P42224); experiment: Inhibition of STAT1 phosphorylation at Y701 residue in human HCT116 cells at 4 to 12 uM after 20 hrs by Western blot analysis; assay type: cell-based
T1 sequence (whole entry): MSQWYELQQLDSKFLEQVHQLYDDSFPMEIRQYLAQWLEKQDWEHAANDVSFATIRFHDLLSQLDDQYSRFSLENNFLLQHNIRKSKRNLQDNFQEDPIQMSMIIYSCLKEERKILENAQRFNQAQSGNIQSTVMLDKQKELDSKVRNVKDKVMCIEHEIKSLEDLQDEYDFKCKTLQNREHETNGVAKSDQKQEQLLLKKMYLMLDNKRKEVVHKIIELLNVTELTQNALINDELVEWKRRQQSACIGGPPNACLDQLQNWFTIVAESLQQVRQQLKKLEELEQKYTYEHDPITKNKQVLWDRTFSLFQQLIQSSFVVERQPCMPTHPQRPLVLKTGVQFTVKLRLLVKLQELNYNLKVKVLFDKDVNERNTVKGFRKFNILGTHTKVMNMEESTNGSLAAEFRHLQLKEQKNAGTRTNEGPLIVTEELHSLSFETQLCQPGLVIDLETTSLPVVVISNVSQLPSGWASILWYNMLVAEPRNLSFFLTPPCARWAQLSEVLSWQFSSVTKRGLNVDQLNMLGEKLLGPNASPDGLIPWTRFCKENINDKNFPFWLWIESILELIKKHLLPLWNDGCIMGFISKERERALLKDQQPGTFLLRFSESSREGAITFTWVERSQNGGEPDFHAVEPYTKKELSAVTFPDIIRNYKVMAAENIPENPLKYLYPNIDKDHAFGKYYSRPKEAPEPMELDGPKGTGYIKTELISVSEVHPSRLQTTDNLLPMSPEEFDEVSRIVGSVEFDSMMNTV

HCT-116 [2] = experiment: Inhibition of colony formation in human HCT116 cells treated for 20 hrs and measured after 2 weeks by crystal violet staining-based assay; assay type: functional, cell-based
[3] = molecular target: T2, Signal transducer and activator of transcription 5A (Homo sapiens) (UniProt P42229); experiment: Inhibition of STAT5 phosphorylation at Y694 residue in human HCT116 cells at 4 to 12 uM after 20 hrs by Western blot analysis; assay type: cell-based
T2 sequence (whole entry): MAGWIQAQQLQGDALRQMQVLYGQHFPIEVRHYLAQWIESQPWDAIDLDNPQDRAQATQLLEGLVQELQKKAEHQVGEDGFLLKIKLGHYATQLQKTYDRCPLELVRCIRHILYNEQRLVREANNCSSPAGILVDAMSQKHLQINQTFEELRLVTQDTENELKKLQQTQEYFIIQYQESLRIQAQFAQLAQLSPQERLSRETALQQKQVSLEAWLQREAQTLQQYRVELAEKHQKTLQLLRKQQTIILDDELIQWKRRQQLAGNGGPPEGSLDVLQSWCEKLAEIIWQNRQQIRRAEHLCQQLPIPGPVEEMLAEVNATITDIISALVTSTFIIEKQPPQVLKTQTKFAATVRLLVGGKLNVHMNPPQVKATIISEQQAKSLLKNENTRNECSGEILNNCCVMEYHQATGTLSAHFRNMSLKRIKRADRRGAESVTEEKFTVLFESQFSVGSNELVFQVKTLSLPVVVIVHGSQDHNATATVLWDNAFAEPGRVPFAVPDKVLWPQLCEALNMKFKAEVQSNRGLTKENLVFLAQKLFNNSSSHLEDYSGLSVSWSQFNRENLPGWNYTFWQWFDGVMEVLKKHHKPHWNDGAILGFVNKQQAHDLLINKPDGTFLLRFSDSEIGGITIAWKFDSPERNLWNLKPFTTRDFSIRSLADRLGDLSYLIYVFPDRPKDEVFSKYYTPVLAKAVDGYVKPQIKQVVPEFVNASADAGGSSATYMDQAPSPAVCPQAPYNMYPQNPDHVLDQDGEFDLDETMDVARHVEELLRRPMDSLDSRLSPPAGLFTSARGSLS

[4] = molecular target: Proto-oncogene tyrosine-protein kinase Src (Homo sapiens) (UniProt P12931); experiment: Inhibition of Src phosphorylation in human HCT116 cells at 4 to 12 uM after 20 hrs by Western blot analysis; assay type: cell-based
Mus musculus = experiment: In vivo inhibition of STAT3 in nude mouse xenografted with human HCT116 cells assessed as reduction in p-STAT3 (Y705) level at 10 to 20 mg/kg, ip dosed daily for 15 days by Western blot relative to untreated control; assay type: functional, organism-based
HCT-116 [5] = experiment: Induction of apoptosis in human HCT116 cells assessed as viable cells at 4 uM after 20 hrs by Annexin V-APC/7-AAD staining-based flow cytometric analysis (reference value: 96.8%); assay type: functional; settings: HCT-116, 20 h, read-out: Activity
[6] = molecular target: T1, Signal transducer and activator of transcription 1-alpha/beta (Homo sapiens); experiment: Inhibition of STAT1 phosphorylation at Y701 residue in human HCT116 cells at 10 uM after 20 hrs by Western blot analysis; assay type: cell-based
[7] = molecular target: Signal transducer and activator of transcription 3 (Homo sapiens) (UniProt P40763); experiment: Inhibition of STAT3 dimerization in human HCT116 cells assessed as inhibition of STAT3-STAT3 DNA binding activity at 4 to 12 uM incubated for 20 hrs by EMSA; assay type: cell-based
[8] = molecular target: Mitogen-activated protein kinase; ERK1/ERK2 (Homo sapiens) (UniProt P27361+P28482); experiment: Inhibition of ERK1/2 phosphorylation in human HCT116 cells at 4 to 12 uM after 20 hrs by Western blot analysis; assay type: cell-based
HCT-116 [9] = experiment: Induction of apoptosis in human HCT116 cells assessed as early apoptotic cells at 8 uM after 20 hrs by Annexin V-APC/7-AAD staining-based flow cytometric analysis (reference value: 3.1%); assay type: functional
HCT-116 [10] = experiment: Antitumor activity against human HCT116 cells xenografted in nude mouse assessed as decrease in tumor volume at 10 mg/kg, ip dosed daily for 15 days relative to untreated control; assay type: functional; set-up: scale not given: the % may be the effect or the level left
HCT-116 [11] = experiment: Induction of apoptosis in human HCT116 cells assessed as late apoptotic cells at 4 uM after 20 hrs by Annexin V-APC/7-AAD staining-based flow cytometric analysis (reference value: 0.0%); assay type: functional
HCT-116 [12] = experiment: Induction of apoptosis in human HCT116 cells assessed as increase in cleaved caspase9 level after 20 hrs by Western blot analysis; assay type: functional, cell-based
[13] = molecular target: Signal transducer and activator of transcription 3 (Homo sapiens) (UniProt P40763); experiment: Inhibition of STAT3 phosphorylation at Y705 residue in human HCT116 cells after 20 hrs by Western blot analysis; assay type: cell-based
HCT-116 [14] = experiment: Induction of apoptosis in human HCT116 cells assessed as necrotic cells at 4 uM after 20 hrs by Annexin V-APC/7-AAD staining-based flow cytometric analysis (reference value: 0.1%); assay type: functional
HCT-116 [15] = experiment: Induction of apoptosis in human HCT116 cells assessed as viable cells at 12 uM after 20 hrs by Annexin V-APC/7-AAD staining-based flow cytometric analysis (reference value: 96.8%); assay type: functional; settings: HCT-116, 20 h, read-out: Activity
HCT-116 [16] = experiment: Antitumor activity against human HCT116 cells xenografted in nude mouse assessed as decrease in tumor weight at 10 mg/kg, ip dosed daily for 15 days relative to untreated control; assay type: functional; set-up: scale not given: the % may be the effect or the level left
[17] = molecular target: Signal transducer and activator of transcription 3 (Homo sapiens) (UniProt P40763); experiment: Inhibition of STAT3 in human HCT116 cells assessed as decrease in cyclin D1 protein expression level after 20 hrs by Western blot analysis; assay type: cell-based

Chain of Signal transducer and activator of transcription 3 (Homo sapiens) (P40763 whole entry): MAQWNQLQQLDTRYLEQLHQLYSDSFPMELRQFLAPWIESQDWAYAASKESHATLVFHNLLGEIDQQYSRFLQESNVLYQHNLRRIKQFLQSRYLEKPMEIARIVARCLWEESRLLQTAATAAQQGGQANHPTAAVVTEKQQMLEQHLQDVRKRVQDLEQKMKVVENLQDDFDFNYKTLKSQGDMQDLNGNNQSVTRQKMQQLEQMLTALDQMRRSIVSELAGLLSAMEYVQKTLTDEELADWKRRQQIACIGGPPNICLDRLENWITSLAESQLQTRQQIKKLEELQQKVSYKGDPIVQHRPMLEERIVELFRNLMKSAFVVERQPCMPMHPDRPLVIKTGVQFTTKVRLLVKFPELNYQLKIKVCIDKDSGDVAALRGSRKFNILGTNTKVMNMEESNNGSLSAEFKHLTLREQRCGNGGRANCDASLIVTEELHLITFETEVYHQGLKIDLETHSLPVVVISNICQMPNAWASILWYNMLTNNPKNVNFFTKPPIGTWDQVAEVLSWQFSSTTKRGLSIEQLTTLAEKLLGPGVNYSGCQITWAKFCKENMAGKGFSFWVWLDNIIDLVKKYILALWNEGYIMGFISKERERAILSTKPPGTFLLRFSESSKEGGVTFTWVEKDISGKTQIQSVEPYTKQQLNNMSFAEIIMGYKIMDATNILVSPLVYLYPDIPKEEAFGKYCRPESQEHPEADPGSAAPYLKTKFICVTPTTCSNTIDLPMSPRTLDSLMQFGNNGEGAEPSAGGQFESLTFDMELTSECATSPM
Chain of Mitogen-activated protein kinase; ERK1/ERK2 (Homo sapiens) (P27361 whole entry, looked up): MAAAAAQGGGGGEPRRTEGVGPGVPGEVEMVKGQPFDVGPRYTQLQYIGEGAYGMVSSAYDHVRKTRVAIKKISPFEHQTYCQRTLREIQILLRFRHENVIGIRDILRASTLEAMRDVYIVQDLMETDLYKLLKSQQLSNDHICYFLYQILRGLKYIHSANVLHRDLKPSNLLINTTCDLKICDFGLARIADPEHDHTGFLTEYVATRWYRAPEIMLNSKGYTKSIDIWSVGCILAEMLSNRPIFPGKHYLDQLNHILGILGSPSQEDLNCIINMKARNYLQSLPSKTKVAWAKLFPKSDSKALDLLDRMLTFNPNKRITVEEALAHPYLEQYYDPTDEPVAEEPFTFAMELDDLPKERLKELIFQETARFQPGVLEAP
Chain of Mitogen-activated protein kinase; ERK1/ERK2 (Homo sapiens) (P28482 whole entry, looked up): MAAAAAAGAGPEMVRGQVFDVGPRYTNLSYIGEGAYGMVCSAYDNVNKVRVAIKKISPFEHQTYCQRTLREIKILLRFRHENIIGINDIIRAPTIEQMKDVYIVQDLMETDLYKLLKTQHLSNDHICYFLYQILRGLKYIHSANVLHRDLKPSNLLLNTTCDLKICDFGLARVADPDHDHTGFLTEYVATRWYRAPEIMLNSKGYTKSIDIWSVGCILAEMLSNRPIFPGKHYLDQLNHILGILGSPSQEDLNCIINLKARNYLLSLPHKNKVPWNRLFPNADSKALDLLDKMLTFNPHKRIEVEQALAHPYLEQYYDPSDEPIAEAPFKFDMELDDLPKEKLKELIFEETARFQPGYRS
Chain of Proto-oncogene tyrosine-protein kinase Src (Homo sapiens) (P12931 2-536 limits assumed): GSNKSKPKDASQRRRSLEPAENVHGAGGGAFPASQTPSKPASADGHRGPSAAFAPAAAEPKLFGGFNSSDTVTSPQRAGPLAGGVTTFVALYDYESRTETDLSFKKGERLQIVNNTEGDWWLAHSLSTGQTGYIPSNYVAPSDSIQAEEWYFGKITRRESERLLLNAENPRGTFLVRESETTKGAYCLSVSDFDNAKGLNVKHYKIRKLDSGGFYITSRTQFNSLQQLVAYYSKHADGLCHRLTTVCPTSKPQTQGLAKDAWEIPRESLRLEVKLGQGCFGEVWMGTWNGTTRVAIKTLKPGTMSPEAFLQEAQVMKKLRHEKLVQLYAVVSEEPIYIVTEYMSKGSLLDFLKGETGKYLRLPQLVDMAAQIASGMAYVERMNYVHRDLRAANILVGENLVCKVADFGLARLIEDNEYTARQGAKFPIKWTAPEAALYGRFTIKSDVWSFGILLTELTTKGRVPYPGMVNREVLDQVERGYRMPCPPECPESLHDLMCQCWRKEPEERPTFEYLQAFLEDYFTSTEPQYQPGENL

## CC(C)c1ccc(CN(Cc2c(F)c(F)c(F)c(F)c2F)c2cccc(S(N)(=O)=O)c2)cc1
[1]
  inhibition: inactive
HCT-116 [2]
  inhibition: Dose-dependent effect
[3]
  inhibition: inactive
[4]
  inhibition: inactive
Mus musculus
  inhibition: Active
HCT-116 [5]
  viability at 4 µM: 92.8%
[6]
  inhibition: inactive
[7]
  inhibition: Active
[8]
  inhibition: inactive
HCT-116 [9]
  Activity: 9.9%
HCT-116 [10]
  Activity: 35.69%
HCT-116 [11]
  Activity: 0%
HCT-116 [12]
  Activity: Dose-dependent effect
[13]
  inhibition: Dose-dependent effect
HCT-116 [14]
  Activity: 0.1%
HCT-116 [15]
  viability at 12 µM: 77%
HCT-116 [16]
  Activity: 41.3%
[17]
  inhibition: Dose-dependent effect
